Measured values as given in patent US9422318B2, “Epoxyeicosatrienoic acid analogs and methods of making and using the same” (THE MEDICAL COLLEGE OF WISCONSIN, INC., priority 2011, dated 2016).
pEC50, pIC50: −log10 of the molar value. Where two headings read alike, the source gives them in different places.

How the values were obtained:
bovine coronary artery = test: Vasorelaxant activity in bovine coronary artery rings; conditions: for Vascular Relax. % (10 μM): rings precontracted with U-46619, 100% relaxation = basal pre-U-46619 tension; for pEC50: Bos taurus, bovine coronary artery rings precontracted with U-46619, read-out: Vascular Relax. EC50
Method: Vasorelaxant activity was measured in bovine coronary artery. Bovine hearts were obtained and the left anterior descending coronary artery was dissected and cleaned of connective tissue. Vessels of 1 mm diameter were cut into rings of 3 mm width as previously described (3, 27, 39). […] The vessels were suspended from a pair of stainless steel hooks in a 6-ml water jacketed organ chamber. […] One hook was anchored to a steel rod and the other hook to a force transducer (model FT-03C; Grass Instruments, West Warwick, R.I.). Tension of the vessel was measured by an ETH-400 bridge amplifier, and the data were acquired with a MacLab 8e analog-to-digital converter and MacLab software version 3.5.6 (AD Instruments, Milford, Mass.) and stored on a Macintosh computer for subsequent data analysis.
Basal tension was set at the length-tension maximum of 3.5 g and equilibrated for 1.5 h. KCl (40 mM) was added to the chamber until reproducible maximal contractions were maintained. […] Cumulative additions of compounds were added to the chamber. Between concentration-response curves, the chambers were rinsed with fresh Krebs buffer, 40 mM KCl was administered to determine the maximum contraction, and the vessels were rinsed. Consecutive concentration-response curves were performed with 14,15-EET followed by a concentration-response curve to a compound. The experiment was always repeated with the order of the agonists reversed. […] The relaxation was plotted versus compound concentration and the EC50 determined utilizing statistical software.

Human recombinant sEH = Human recombinant sEH (Homo sapiens (Human), UniProt P34913); test: Soluble epoxide hydrolase inhibition (PHOME fluorescent substrate); format: biochemical
Chain of Human recombinant sEH (P34913 whole entry): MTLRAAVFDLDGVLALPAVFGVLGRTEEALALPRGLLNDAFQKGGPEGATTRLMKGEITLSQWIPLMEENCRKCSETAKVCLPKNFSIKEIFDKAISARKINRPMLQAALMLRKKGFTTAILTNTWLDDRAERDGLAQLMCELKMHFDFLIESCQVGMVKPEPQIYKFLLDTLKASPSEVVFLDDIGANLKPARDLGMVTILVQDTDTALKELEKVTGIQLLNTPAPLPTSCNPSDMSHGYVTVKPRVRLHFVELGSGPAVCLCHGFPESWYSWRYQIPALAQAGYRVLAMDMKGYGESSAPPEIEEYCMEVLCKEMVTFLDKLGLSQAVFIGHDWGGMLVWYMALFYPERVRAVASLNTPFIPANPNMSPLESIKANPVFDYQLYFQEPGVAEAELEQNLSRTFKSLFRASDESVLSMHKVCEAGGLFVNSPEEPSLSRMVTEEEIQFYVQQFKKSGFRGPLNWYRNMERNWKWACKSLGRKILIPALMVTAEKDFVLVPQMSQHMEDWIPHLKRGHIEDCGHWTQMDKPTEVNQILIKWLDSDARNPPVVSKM
Method: Compounds were tested for their ability to inhibit recombinant soluble epoxide hydrolase (sEH) protein. The assay utilizes (3-Phhenyl-oxiranyl)-acetic acid cyano-(6-methoxy-naphthalen-2-yl)-methyl ester (PHOME), a sensitive substrate for sEH that can be used to monitor the activity of both human and murine enzymes. […] Human recombinant sEH was incubated with substrate and compounds ranging in concentration from 0.1 to 1000 nM.

[1] = system: Spontaneously Hypertensive Rats (SHR); test: Telemetry blood pressure and heart rate in spontaneously hypertensive rats; format: in vivo, rat
Text: To accurately detect changes in blood pressure and heart rate, telemetry transmitters (Data Sciences Inc., St. Paul, Minn.) were implanted in rats one week prior to the experimental period according to manufacturer's specifications while under pentobarbital anesthesia. In brief, an incision was made to expose the femoral artery that was occluded to allow insertion of the transmitter catheter. The catheter was secured in place with tissue glue and the transmitter body was sutured in place and the incision line was closed. Rats were allowed to recover from surgery and were returned to individual housing. A baseline arterial pressure was recorded for prior to the experimental period. Mean arterial pressure was continuously recorded throughout the experimental period.
Telemetry transmitters were implanted into male SHR as described. After the surgical recovery period, baseline mean arterial pressure was recorded. In this series of experiments, EET analogs were administered by osmotic pump (2 mg/d, i.p.) and blood pressure was continuously monitored.

[2] = system: cisplatin-induced nephrotoxicity in Wistar-Kyoto (WKY) rats; test: Cisplatin-induced nephrotoxicity in rats; format: in vivo, rat
Text: Experiments were approved and carried out according to the guidelines of the Institutional Animal Care and Use Committee, Medical College of Wisconsin, Milwaukee, USA. Male Wistar-Kyoto (WKY) rats weighing 180-200 g (Charles River, Mass., USA). All animals were kept in a temperature-controlled environment with a 12-h light/dark cycle and were allowed free access to food and water at all times. An acclimatization period of 6 days was allowed for the rats before experimentation. The rats were assigned into four groups. […] Rats received drinking water ad libitum for seven days and on day 7 DMSO (Sigma Aldrich, St. Louis, Mo., USA) was administered (300-500 μl i.p.). […] These rats are pretreated with the EET analog […].) for seven days in drinking water and then on day 7 administered CP as a single injection (7 mg/kg i.p.) followed by another five days treatment with EET-A. […] One day before the rats were sacrificed, urine of each rat was collected over a 24-h period, and the volume was measured. Five days after CP or DMSO administration, rats were anesthetized for blood sample collection followed by euthanasia and tissue collection. Urine and plasma samples were kept frozen at -80° C. until analyzed. The kidneys were removed, washed with physiological saline and stored at -80° C. until used for RT-PCR analysis, thiobarbituric acid reactive substance (TBARS) measurement and caspase 3 activity assay. […] The levels of blood urea nitrogen (BUN) (BioAssay Systems, Hayward, Calif., USA) and serum creatinine (Cayman Chemical Company, Ann Arbor, Mich., USA) were measured spectrophotometrically using commercial kits. Urinary content of creatinine and protein were measured using commercial kits (Cayman Chemical Company, Ann Arbor, Mich., USA), and the activity of urinary N-acetyl-b-glucosaminidase (NAG) in the urine was measured by a kit from Diazyme (Diazyme Laboratories, Poway, Calif., USA). While urine content of kidney injury molecule-1 (KIM-1) was measured using ELISA (R&D Systems, Inc. Minneapolis, Minn., USA). Malondialdehyde (MDA) is a thiobarbituric acid reactive substance (TBARS) that is formed as an end-product of lipid peroxidation and serves as an important index of oxidative stress. […] Using a commercially available kit (Cayman Chemical Company, Ann Arbor, Mich., USA), MDA was measured spectrophotometrically after reaction with thiobarbituric acid. […] Louis, Mo., USA). Kidney homogenate was prepared with a lysis Buffer (50 mM HEPES, pH 7.4, with 5 mM CHAPS and 5 mM DTT). […] The caspase 3 activity is expressed as nmol of AMC/min/μL. Real-Time analysis was carried out to assess the expression of oxidative (gp91phox, NOX1, SOD1, SOD2, SOD3), inflammatory (TNF-α, IL-6, apoptotic (Bax, Bak, Bcl-2) and endoplasmic reticulum stress (GRP78, caspase 12) related genes in the kidney. Total RNA was isolated from kidney homogenate using TRIzol LS reagents (Invitrogen Life Technologies, Carlsbad, Calif., USA) according to the manufacturer's instructions. The isolated RNA was treated with RNase-free DNase (Invitrogen, Carlsbad, Calif., USA) to remove traces of genomic DNA contamination. The mRNA samples were quantified by spectrophotometry at 260 nm and 1 μg of total RNA was reverse-transcribed to cDNA using iScriptTM Select cDNA Synthesis Kit (Bio-Rad, Hercules, Calif., USA). The target gene expression was quantified by iScript One-Step RT-PCR Kit with SYBR green using MyiQTM Single Color Real-Time PCR Detection System (Bio-Rad Laboratories, Hercules, Calif., USA). Each amplified sample in all wells was analyzed for homogeneity using dissociation curve analysis using iQ5 Optical System Software, Version 2.1 (Bio-Rad Laboratories, Hercules, Calif., USA). […] In analyzing the relative expression of the target genes, the Ct values were normalized to a housekeeping gene (pgk1). Statistical analyses were carried out for at least 5-7 experimental samples in each experimental group. Primers used in this study were designed based on several earlier reports. […]

[3] = human recombinant sEH, PHOME substrate, 0.1 to 1000 nM, read-out: sEHi IC50

SMILES	Vascular Relax. % (10 μM) (bovine coronary artery)	further results
CCCCCNC(=O)NCCCC/C=C\CCCCCCC(=O)N[C@@H](CC(=O)O)C(=O)O (stereo in doubt) [Compound 7, (S)-2-(13-(3-n-Pentylureido)tridec-8(Z)-enamido)succinic acid]	91%	–
CCCCCCC(=O)N(CCCC/C=C\CCCCCCC(=O)OCCOCCOCCO)C(C)C [Compound 1, 2-(2-(2-Hydroxyethoxyl)ethoxy)ethyl 13-(N-isopropylheptanamido)tridec-8(Z)-enoate]	86%	pEC50 (bovine coronary artery): 5.54
CCCCCNC(=O)NCCCC/C=C\CCCCCCC(=O)OCCOCCOCCO [Compound 2, 2-(2-(2-Hydroxyethoxyl)ethoxy)ethyl 13-(3-n-pentylureido)tridec-8(Z)-enoate]	72%	pEC50 (bovine coronary artery): 5.29
CCCCNC(=O)C(=O)NCCCC/C=C\CCCCCCC(=O)OCCOCCOCCO [Compound 3, 2-(2-(2-Hydroxyethoxyl)ethoxy)ethyl13-(2-(n-butylamino)-2 oxoacetamido)tridec-8(Z)-enoate]	104%	pEC50 (bovine coronary artery): 5.82
CCCCCNC(=O)NCCCC/C=C\CCCCOCC(=O)O [Compound 4, 2-(10-(3-n-Pentylureido)dec-5(Z)-enyloxy)acetic acid]	49%	–
CCCCCCC(=O)N(CCCC/C=C\CCCCCCC(=O)NCC(=O)O)C(C)C [Compound 5, 2-(13-(N-Isopropylheptanamido)tridec-8(Z)-enamido)acetic acid]	95%	pIC50 (Human recombinant sEH; [3]): < 6.30
CCCCCN(C)C(=O)N(C)CCCC/C=C\CCCCCCC(=O)NCC(=O)O [Compound 6, 2-(13-(1,3-Dimethyl-3-n-pentylureido)tridec-8(Z)-enamido)acetic acid]	92%	–
CCCCCNC(=O)NCCCC/C=C\CCCCCCC(=O)NS(=O)(=O)c1ccccc1 [Compound 8, 13-(3-n-Pentylureido)-N-(phenylsulfonyl)tridec-8(Z)-enamide]	73%	–
CCCCCNC(=O)NCCCC/C=C\CCCCCCC(=O)NS(C)(=O)=O [Compound 9, N-(Methylsulfonyl)-13-(3-n-pentylureido)tridec-8(Z)-enamide]	61%	–
CCCCCNC(=O)NCCCC/C=C\CCCCCCP(=O)([O-])[O-].[Na+].[Na+] [Compound 10]	71%	–
CCCCCNC(=O)NCCCC/C=C\CCCCCCS(=O)(=O)[O-].[Na+] [Compound 11]	63%	–
CCCCCCC(=O)N(CCCC/C=C\CCCCCCc1nnn[nH]1)C(C)C [Compound 19]	74%	pIC50 (Human recombinant sEH; [3]): < 6.30
CCCCCNC(=O)NCCCC/C=C\CCCCCCc1nnn[nH]1 [Compound 20]	–	heart rate ([1]; 2 mg/d i.p., vehicle 331±17.0): 325±11.0 BPM
CCCCNC(=O)C(=O)NCCCC/C=C\CCCCCCc1nnn[nH]1 [Compound 21]	96%	–
CCCCCNC(=O)NCCCC/C=C\CCCCCCCc1nnn[nH]1 [Compound 22, 1-(13-(1H-Tetrazol-5-yl)tridec-5(Z)-enyl)-3-n-pentylurea]	110%	–
CCCCCNC(=O)NCCCC/C=C\CCCCCCc1noc(=O)[nH]1 [Compound 23]	89%	–
CCCCCCC(=O)N(CCCC/C=C\CCCCCCC1=NOS(=O)N1)C(C)C (stereo not shown) [Compound 26]	–	blood pressure ([1]; 2 mg/d i.p. osmotic pump, after two weeks of treatment, vehicle 141±3.0): 150±5.0 mmHg
CCCCCNC(=O)NCCCC/C=C\CCCCCCc1noc(=S)[nH]1 [Compound 28]	93%	–
CCCCCNC(=O)NCCCC/C=C\CCCCCCc1nsc(=O)[nH]1 [Compound 29]	54%	–
CCCCCCC(=O)N(CCCCCOc1cccc2sc(NC(C)=O)nc12)C(C)C [Compound 30, N-(5-(2-Acetamidobenzo[d]thiazol-4-yloxy)pentyl)-N-isopropylheptanamide]	96%	start of blood pressure lowering ([1]; effect maintained until end of two-week treatment): within four days; pIC50 (Human recombinant sEH; read-out: SEHi activity IC50): < 6.30; pIC50 (Human recombinant sEH; read-out: sEHi IC50): < 6.30
CCCCCNC(=O)NCCCCCOc1cccc2sc(NC(C)=O)nc12 [Compound 31, N-(4-(5-(3-n-Pentylureido)pentyloxy)benzo[d]thiazol-2-yl)acetamide]	73%	–
CCCCNC(=O)C(=O)NCCCCCOc1cccc2sc(NC(C)=O)nc12 [Compound 32, N^1-(5-(2-Acetamidobenzo[d]thiazol-4-yloxy)pentyl)-N^2-n-butyloxalamide]	96%	pIC50 (Human recombinant sEH; [3]): < 6.30
CCCCCCC(=O)N(CCCCCOc1cccc2sc(NC(=O)C(C)(C)C)nc12)C(C)C [EET-B, N-Isopropyl-N-(5-(2-pivalamidobenzo[d]thiazol-4-yloxy)pentyl)heptanamide]	–	kidney TBARS formation ([2]; 10 mg/kg/d p.o., vehicle 16±2): 8 ± 1 µmol/g; reductions in renal mRNA expressions of inflammatory markers (TNF-α, IL-6, interleukin-1β) ([2]; cisplatin-administered rats): 40-60%; proteinuria ([2]; cisplatin-administered rats, vehicle 53±5): 32 ± 3 mg/day; reductions in the elevated levels of serum creatinine and BUN ([2]; five days after cisplatin, vs. vehicle): 30-50%; NAG ([2]; urinary, 10 mg/kg/d p.o., vehicle 3.0±0.6): 0.6±0.2 U/d; KIM-1 ([2]; urinary, 10 mg/kg/d p.o., vehicle 296±94): 57 ± 13 ng/day
